Measurements reported in ChEMBL document CHEMBL1144533, “Synthesis and evaluation of 2-{[2-(4-hydroxyphenyl)-ethyl]amino}pyrimidine-5-carboxamide derivatives as novel STAT6 inhibitors” (Bioorg Med Chem, 2007).
Activity calls are given as the source filed them. No cut-off for these calls is given here.

Legend:
[1] = target: T1, Signal transducer and activator of transcription 6 (Homo sapiens, UniProt P42226); assay: Inhibition of STAT6 in human IL4-stimulated FW4 cells
T1 sequence (P42226 whole entry): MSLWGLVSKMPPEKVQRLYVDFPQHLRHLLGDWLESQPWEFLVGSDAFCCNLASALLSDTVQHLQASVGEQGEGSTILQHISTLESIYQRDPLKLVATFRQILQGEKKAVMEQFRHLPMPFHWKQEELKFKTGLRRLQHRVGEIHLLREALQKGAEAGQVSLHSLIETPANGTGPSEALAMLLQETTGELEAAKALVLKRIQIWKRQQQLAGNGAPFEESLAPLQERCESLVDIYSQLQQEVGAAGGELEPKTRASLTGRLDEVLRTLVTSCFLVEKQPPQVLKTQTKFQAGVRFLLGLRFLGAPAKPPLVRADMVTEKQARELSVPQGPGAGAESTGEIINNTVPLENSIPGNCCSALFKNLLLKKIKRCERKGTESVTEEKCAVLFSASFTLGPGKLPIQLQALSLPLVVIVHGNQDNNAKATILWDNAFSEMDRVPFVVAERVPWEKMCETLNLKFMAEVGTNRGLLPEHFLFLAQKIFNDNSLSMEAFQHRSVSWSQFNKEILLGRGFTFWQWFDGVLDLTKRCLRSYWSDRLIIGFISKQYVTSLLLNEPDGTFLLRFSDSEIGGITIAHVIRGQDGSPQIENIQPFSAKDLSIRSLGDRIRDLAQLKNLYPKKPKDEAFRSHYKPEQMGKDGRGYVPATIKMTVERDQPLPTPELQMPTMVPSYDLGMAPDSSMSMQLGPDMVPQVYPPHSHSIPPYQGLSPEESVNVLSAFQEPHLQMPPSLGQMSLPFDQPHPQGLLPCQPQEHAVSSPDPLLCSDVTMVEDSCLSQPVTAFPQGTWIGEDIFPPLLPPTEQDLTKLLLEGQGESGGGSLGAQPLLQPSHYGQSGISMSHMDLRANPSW

[2] = target: T2, Signal transducer and activator of transcription 6 (Homo sapiens) (UniProt P42226); assay: Inhibition of STAT6 in human IL4-stimulated FW4 cells at 10 uM
T2 sequence (whole entry): T1 sequence (P42226 whole entry)

[3] = system: T-cell; assay: Effect on differentiation of C57BL/6 mouse T cells assessed as inhibition of IL4 production; assay type: functional, cell-based; conditions: C57BL/6, T-cell
[4] = system: T-cell; assay: Effect on differentiation of C57BL/6 mouse T cells assessed as inhibition of IL12-induced TFN-gamma production; assay type: functional, cell-based

Row | SMILES | IC50 [1] [µM] | other results
1 | CCNC(=O)c1cnc(NCCc2ccc(O)cc2)nc1Nc1cccc(C)c1 | 0.38 | 
2 | Cc1cccc(Nc2nc(NCCc3ccc(O)c(F)c3)ncc2C(N)=O)c1 | 0.064 | 
3 | Cc1cccc(Nc2nc(CCCc3ccc(O)cc3)ncc2C(N)=O)c1 |  | inhibition [2]: 32%
4 | Cc1cccc(Nc2nc(NCCc3ccc(O)c(Cl)c3)ncc2C(N)=O)c1 | 0.045 | 
5 | CNC(=O)c1cnc(NCCc2ccc(O)cc2)nc1Nc1cccc(C)c1 | 0.17 | 
6 | Cc1cccc(Nc2nc(NCCc3ccccc3O)ncc2C(N)=O)c1 |  | inhibition [2]: 15%
7 | COc1cc(CCNc2ncc(C(N)=O)c(Nc3cccc(C)c3)n2)ccc1O | 0.66 | 
8 | Cc1cccc(Nc2nc(NCCc3cccc(O)c3)ncc2C(N)=O)c1 | 3 | 
9 | Cc1cccc(Nc2nc(NCCc3ccc(O)cc3)ncc2C(N)=O)c1 | 0.19 | IC50 [3]: 0.014 µM; Activity [4]: inactive
10 | NC(=O)c1cnc(NCCc2ccc(O)cc2)nc1NC1CCCCC1 | 0.1 | 
11 | Cc1cccc(Nc2nc(NCCc3ccc(O)cc3)ncc2C(=O)NC(C)C)c1 | 1.1 | 
12 | Cc1cccc(Nc2nc(NCCc3ccc(O)cc3)ncc2C(=O)N(C)C)c1 | 8.2 | 
13 | Cc1cccc(Nc2nc(NCCc3ccccc3)ncc2C(N)=O)c1 |  | inhibition [2]: 16%
14 | NC(=O)c1cnc(NCCc2ccc(O)cc2)nc1NCc1ccccc1 | 0.088 | 
15 | COc1ccc(CCNc2ncc(C(N)=O)c(Nc3cccc(C)c3)n2)cc1 |  | inhibition [2]: 49%
16 | Cc1cccc(Nc2nc(NCCc3ccc(O)c(C)c3)ncc2C(N)=O)c1 | 0.13 | 
17 | Cc1cccc(Nc2nc(NCCc3ccc(O)c(Br)c3)ncc2C(N)=O)c1 | 0.083 | 
18 | CNC(=O)c1cnc(NCCc2ccc(O)c(Cl)c2)nc1NCc1ccccc1 | 0.03 | 
19 | Cc1cccc(Nc2nc(NCc3ccc(O)cc3)ncc2C(N)=O)c1 |  | inhibition [2]: 19%
20 | Cc1cccc(Nc2nc(NCCCc3ccc(O)cc3)ncc2C(N)=O)c1 |  | inhibition [2]: 23%
21 | NC(=O)c1cnc(NCCc2ccc(O)c(Cl)c2)nc1NCc1ccccc1 | 0.021 | IC50 [3]: 0.0023 µM; Activity [4]: inactive
22 | NC(=O)c1cnc(NCCc2ccc(O)cc2)nc1Nc1ccccc1 | 0.41 | 
